# From patent US20250296928A1, “A SYNTHESIS SCHEME AND PROCEDURES FOR PREPARING A SIK3 INHIBITOR AND INTERMEDIATES THEREOF” (iOmx Therapeutics AG, priority 2021, published 2025)
# Key:
# [1] = Mouse liver microsomal stability; assay type: in vitro ADME
# [2] = Human plasma-protein binding; assay type: in vitro ADME; conditions: for fraction unbound: human, plasma
# [3] = Murine plasma protein binding; assay type: in vitro ADME, mouse
# [4] = Human liver microsomal stability; assay type: in vitro ADME
# [5] = Full pharmacokinetic study with oral administration in mice; assay type: in vivo
# [6] = Screening PK in mice, 30 mg/kg po; assay type: in vivo
# SIK2 = target: T1, SIK2 (Homo sapiens, UniProt Q9H0K1); experiment: Radiometric protein kinase assay (33PanQinase Activity Assay), SIK2; assay type: biochemical; conditions: ATP 1.0 μM
# T1 construct: purchased ProQuinase, Freiburg, Germany
# T1 sequence (Q9H0K1 whole entry): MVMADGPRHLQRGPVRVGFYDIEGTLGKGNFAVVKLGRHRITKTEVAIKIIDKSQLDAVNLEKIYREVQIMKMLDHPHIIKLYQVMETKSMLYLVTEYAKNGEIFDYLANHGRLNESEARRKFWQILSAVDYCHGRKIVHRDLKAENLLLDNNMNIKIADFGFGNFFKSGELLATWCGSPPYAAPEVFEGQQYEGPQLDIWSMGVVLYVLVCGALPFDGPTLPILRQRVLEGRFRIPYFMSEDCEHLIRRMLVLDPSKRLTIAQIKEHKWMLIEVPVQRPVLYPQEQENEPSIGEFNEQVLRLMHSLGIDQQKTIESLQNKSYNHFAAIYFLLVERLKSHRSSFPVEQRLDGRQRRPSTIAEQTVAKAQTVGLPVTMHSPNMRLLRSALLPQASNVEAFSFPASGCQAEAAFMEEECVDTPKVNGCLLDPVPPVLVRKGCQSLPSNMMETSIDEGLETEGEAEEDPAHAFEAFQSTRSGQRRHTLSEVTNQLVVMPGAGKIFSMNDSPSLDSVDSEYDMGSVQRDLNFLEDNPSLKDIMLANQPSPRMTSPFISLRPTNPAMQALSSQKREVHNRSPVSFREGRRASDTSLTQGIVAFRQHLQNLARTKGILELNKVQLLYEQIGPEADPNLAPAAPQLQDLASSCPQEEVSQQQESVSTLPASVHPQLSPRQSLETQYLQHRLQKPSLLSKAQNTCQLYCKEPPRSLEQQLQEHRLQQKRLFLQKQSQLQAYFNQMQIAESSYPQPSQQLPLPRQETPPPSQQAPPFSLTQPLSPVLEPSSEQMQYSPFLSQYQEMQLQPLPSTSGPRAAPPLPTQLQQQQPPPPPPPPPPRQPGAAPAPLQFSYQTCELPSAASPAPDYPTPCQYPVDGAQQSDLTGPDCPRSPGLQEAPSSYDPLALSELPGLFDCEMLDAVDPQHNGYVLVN
# Method: (§1) Incorporation of 33Pi was determined with a microplate scintillation counter (Microbeta, Wallac).
# SIK3 = target: T2, SIK3 (Homo sapiens, UniProt Q9Y2K2); experiment: Radiometric protein kinase assay (33PanQinase Activity Assay), SIK3; assay type: biochemical
# T2 construct: purchased ProQuinase, Freiburg, Germany
# T2 sequence (Q9Y2K2 whole entry): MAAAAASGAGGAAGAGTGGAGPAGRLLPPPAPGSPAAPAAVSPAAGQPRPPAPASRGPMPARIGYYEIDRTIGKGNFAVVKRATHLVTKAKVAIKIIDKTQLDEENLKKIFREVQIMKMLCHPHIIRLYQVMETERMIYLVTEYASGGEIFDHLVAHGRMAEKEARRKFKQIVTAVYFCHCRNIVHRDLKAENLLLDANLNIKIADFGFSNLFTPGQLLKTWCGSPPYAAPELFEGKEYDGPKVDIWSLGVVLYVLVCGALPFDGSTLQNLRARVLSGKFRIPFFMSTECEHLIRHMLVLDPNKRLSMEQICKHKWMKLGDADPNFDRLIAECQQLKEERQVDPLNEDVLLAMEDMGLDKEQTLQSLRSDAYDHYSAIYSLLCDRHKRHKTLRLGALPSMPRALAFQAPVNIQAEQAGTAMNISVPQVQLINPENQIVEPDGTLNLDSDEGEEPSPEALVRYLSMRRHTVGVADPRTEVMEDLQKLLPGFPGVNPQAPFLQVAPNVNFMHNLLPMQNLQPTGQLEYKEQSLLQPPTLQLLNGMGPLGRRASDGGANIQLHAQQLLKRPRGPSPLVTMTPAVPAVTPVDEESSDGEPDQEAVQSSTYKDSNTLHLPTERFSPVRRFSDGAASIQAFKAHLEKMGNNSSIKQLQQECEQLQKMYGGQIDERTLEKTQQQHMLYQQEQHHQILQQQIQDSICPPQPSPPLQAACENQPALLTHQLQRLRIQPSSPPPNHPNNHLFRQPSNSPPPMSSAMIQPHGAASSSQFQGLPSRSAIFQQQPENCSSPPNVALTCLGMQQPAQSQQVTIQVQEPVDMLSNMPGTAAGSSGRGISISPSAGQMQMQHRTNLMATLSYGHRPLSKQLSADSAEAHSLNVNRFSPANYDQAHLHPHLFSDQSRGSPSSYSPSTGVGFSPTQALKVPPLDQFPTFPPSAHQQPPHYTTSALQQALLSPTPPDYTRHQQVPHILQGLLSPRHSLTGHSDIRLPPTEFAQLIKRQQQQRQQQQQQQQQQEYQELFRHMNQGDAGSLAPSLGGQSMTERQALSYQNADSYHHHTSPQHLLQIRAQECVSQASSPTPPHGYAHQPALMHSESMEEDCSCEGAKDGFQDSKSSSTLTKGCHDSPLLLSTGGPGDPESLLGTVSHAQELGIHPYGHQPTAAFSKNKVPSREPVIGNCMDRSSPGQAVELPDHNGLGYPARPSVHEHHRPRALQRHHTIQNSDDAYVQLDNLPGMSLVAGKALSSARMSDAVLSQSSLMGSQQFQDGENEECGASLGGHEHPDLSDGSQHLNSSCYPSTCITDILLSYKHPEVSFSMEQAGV
# Method: as §1
# in vitro = conditions: dog, MDCK
# NFKB activity (MC38) = experiment: TNF-induced NFKB activity in MC38 cells; assay type: cell-based, mouse; conditions: for Inhibition of NFKB activity: summary Table 4.3, cell line not stated; for Inhibition of NFKB activity (MC38): TNF-induced, 10 ng/ml rMuTNF
# Method: TNF-induced NFKB activity in MC38 cells was measured analogously to the assay in PANC-1 cells described in connection with Example 9.2 (Table 9C) of WO2020/083926), except that 10 ng/ml rMuTNF was used.
# [7] = Human hepatocyte stability; assay type: in vitro ADME; conditions: for clearance classification: from human hepatocyte stability
# [8] = Mouse hepatocyte stability; assay type: in vitro ADME
# HDAC4 phosphorylation = experiment: TNF-induced phosphorylation of HDAC4; assay type: cell-based; conditions: for Inhibition of HDAC4 phosphorylation: TNF-induced; for Inhibition of HDAC phosphorylation: summary Table 4.3
# P-gp (MDR1) = experiment: Permeability and efflux in MDCK-MDR1 cells; assay type: in vitro ADME; conditions: dog
# MC38 cells = experiment: MC38 syngeneic tumour model, in-vivo anti-cancer efficacy
# Method: Y-axis=Mean tumour volume (mm3). Error bars SEM Statistical significance was calculated with one-way ANOVA analysis including Tukey's multiple comparison analysis. X-axis=Days. (B) Probability of tumour volume <1000 mm3 of the mice in (A). Y-axis: Probability of occurrence of tumour volumes <=1000 mm3 upon treatment. X-axis: Days. […] (C) to (H) Tumour growth curves of individual mice; Y-axis: Tumour volume (mm3), X-axis: Days.
# [9] = tested on: MC38 syngeneic tumour model; experiment: MC38 syngeneic tumour model, comparative study E9 versus dasatinib (FIG. 5); assay type: in vivo, mice; conditions: 25 mg/kg BID
# Excerpt: Left hand column=compound treatment group; and right hand column=vehicle treatment group. Y axes=Tumour volume (mm3); X axes=Days after inoculation.
# NFKB activity (PANC-1) = experiment: TNF-induced NFKB activity in PANC-1 cells; assay type: cell-based
# MDCK-wild type cells = experiment: Permeability and efflux in MDCK-wild type cells
# MDCK-MDR1 cells (P-gp) = experiment: Permeability and efflux in MDCK-MDR1 cells; assay type: in vitro ADME
# [10] = mice, 30 mg/kg po, Free plasma concentration
# [11] = mice, 30 mg/kg po, Total plasma concentration
# [12] = Total plasma concentration at 30 mg/kg p.o dose, C7 = 1x
# [13] = mouse, plasma, mice, 30 mg/kg po, Free
compound,measurement,setting,value
Cc1nc(Nc2ncc(C(=O)Nc3c(Cl)ccnc3C)s2)cc(N2CCN(CCO)CC2)n1 [Compound B3],Mouse liver microsomal stability: Half-life,[1]; mouse liver microsomes,62 min
same,Mouse liver microsomal stability: Intrinsic clearance,[1]; mouse liver microsomes,22 µL/min/mg
same,Human plasma-protein binding: Percentage unbound,[2],7%
same,Murine plasma protein binding: Percentage unbound,[3]; murine plasma,11%
same,Human liver microsomal stability: Half-life,[4]; human liver microsomes,58 min
same,Human liver microsomal stability: Intrinsic clearance,[4]; human liver microsomes,24 µL/min/mg
same,Tmax,"[5]; mice, 30 mg/kg po, Free",30 min
same,t1/2,"[5]; mice, 30 mg/kg po, Free",144 min
same,Cmax,[5]; [10],10.7 ng/mL
same,% AUCextrap,"[5]; mice, 30 mg/kg po, Total",14%
same,AUCinf,"[5]; mice, 30 mg/kg po, Total",697 nM·h
same,AUClast,"[5]; mice, 30 mg/kg po, Total",589 nM·h
same,Tmax,"[5]; mice, 30 mg/kg po, Total",30 min
same,t1/2,"[5]; mice, 30 mg/kg po, Total",144 min
same,Cmax,[5]; [11],99 ng/mL
same,Cmax after 2 h,"[6]; 30 mg/kg po, 2 h",56 ng/mL
same,Free plasma concentration after 6 h,"[6]; 30 mg/kg po, 6 h, free",3 nM
same,Plasma concentration after 6 h,"[6]; 30 mg/kg po, 6 h, total",29 nM
"Cc1nc(Nc2ncc(C(=O)Nc3c(CF)csc3Cl)s2)cc(N2CCN(C)CC2)n1 [Compound E9, N-(2-chloro-4-(fluoromethyl)thiophen-3-yl)-2-((2-methyl-6-(4-methylpiperazin-1-yl)pyrimidin-4-yl)amino)thiazole-5-carboxamide]",clearance classification,[1]; from mouse liver microsomal stability,high clearance drugs
same,half-life,[1]; mouse liver microsomes,~10 min
same,microsomal CLint,"[1]; mouse liver microsomes, read-out: Mouse liver microsomal stability: Intrinsic clearance",130 to 150 µL/min/mg
same,fraction unbound,[2]; read-out: Human plasma-protein binding: Percentage unbound,0.01
same,fraction unbound,[2]; read-out: human plasma protein binding,< 0.05
same,IC50,SIK2,< 10 nM
same,"SIK3 IC50 (nM), relative to C7",SIK3; relative to C7 = 1x,0.3x
same,potency against SIK3 improved over C7 and D9,SIK3; relative to C7 and D9,2-3 times
same,Papp A→B,in vitro,10 ×10⁻⁶ cm/s
same,efflux ratio,in vitro,20 to 30
same,Inhibition of NFKB activity,NFKB activity (MC38),++
same,clearance classification,[7],high clearance drugs
same,half-life,[7]; human hepatocytes,~25 min
same,clearance classification,[8]; from mouse hepatocyte stability,medium clearance drug
same,half-life,[8]; mouse hepatocytes,~65 min
same,Inhibition of HDAC4 phosphorylation,HDAC4 phosphorylation,++
same,Inhibition of HDAC phosphorylation,HDAC4 phosphorylation,++
same,fraction unbound,[3]; mouse plasma,< 0.05
same,fraction unbound at 4 h,"[3]; mouse, murine plasma, read-out: Murine plasma protein binding: Percentage unbound",0.01
same,Papp A→B,P-gp (MDR1),5 ×10⁻⁶ cm/s
same,clearance classification,[4]; from human liver microsomal stability,high clearance drugs
same,half-life,[4]; human liver microsomes,~10 min
same,microsomal CLint,"[4]; human liver microsomes, read-out: Human liver microsomal stability: Intrinsic clearance",130 to 150 µL/min/mg
same,Body weight increase,"MC38 cells; 25 mg/Kg, BID, po",16.8%
same,Tumour growth inhibition,"MC38 cells; 25 mg/Kg, BID, po",74%
same,Body weight increase,"MC38 cells; 50 mg/Kg, BID, po",18.7%
same,Tumour growth inhibition,"MC38 cells; 50 mg/Kg, BID, po",69%
same,treatment related side effects and clinical signs,MC38 cells; administered orally,no direct treatment related side effects and clinical signs
same,average TGI,[9],72%
same,"AUC0-last (nM*h), relative to C7",[5]; [12],8.2x
same,"C max (ng/ml), relative to C7",[5]; [12],5.6x
same,"MRT0-last (h), relative to C7",[5]; [12],1.2x
same,"t1/2 (h), relative to C7",[5]; [12],2x
same,% AUCextrap,"[5]; mice, 30 mg/kg po, Free",0.49%
same,MRTlast,"[5]; mice, 30 mg/kg po, Free",203 min
same,Rsq,"[5]; mice, 30 mg/kg po, Free",0.84
same,Tmax,"[5]; mice, 30 mg/kg po, Free",15 min
same,t1/2,"[5]; mice, 30 mg/kg po, Free",166 min
same,% AUCextrap,"[5]; mice, 30 mg/kg po, Total",0.49%
same,Rsq,"[5]; mice, 30 mg/kg po, Total",0.84
same,AUC(0-inf),[5]; [13],0.24 µM·h
same,AUC(0-t),[5]; [13],0.239 µM·h
same,Cmax,"[5]; mouse, mice, 30 mg/kg po, Free plasma concentration, read-out: Cmax",66.9 ng/mL
same,improvement for free serum concentration over C7,"[6]; 30 mg/Kg po, free",2 fold
same,improvement for total serum concentration over C7,"[6]; 30 mg/Kg po, total",4.5 fold
Cc1nc(Nc2ncc(C(=O)Nc3c(C)csc3Cl)s2)cc(N2CCN(CCO)CC2)n1 [Compound C7],Mouse liver microsomal stability: Half-life,[1]; mouse liver microsomes,13 min
same,Mouse liver microsomal stability: Intrinsic clearance,[1]; mouse liver microsomes,110 µL/min/mg
same,Human plasma-protein binding: Percentage unbound,[2],2%
same,Human plasma-protein binding: Recovery at 4 h,[2]; 4 h,75%
same,Inhibition of NFKB activity (PANC-1),NFKB activity (PANC-1),+
same,Inhibition of NFKB activity (MC38),NFKB activity (MC38),+
same,Inhibition of NFKB activity,NFKB activity (MC38),+
same,Mean Papp A > B,MDCK-wild type cells,9 10^−6 cm/s
same,clearance classification,[7],medium-to-high clearance drugs
same,Human hepatocyte stability: Half-life,[7]; human hepatocytes,54 min
same,Human hepatocyte stability: Intrinsic clearance,[7]; human hepatocytes,26 µL/min/mg
same,half-life in the presence of human hepatocytes,[7]; human hepatocytes,approx. 1 h
same,Mouse hepatocyte stability: Half-life,[8]; mouse hepatocytes,50 min
same,Mouse hepatocyte stability: Intrinsic clearance,[8]; mouse hepatocytes,28 µL/min/mg
same,Inhibition of HDAC4 phosphorylation,HDAC4 phosphorylation,+
same,Inhibition of HDAC phosphorylation,HDAC4 phosphorylation,+
same,Murine plasma protein binding: Percentage unbound,[3]; murine plasma,3%
same,Murine plasma protein binding: Recovery at 4 h,"[3]; murine plasma, 4 h",87%
same,Mean Papp A > B,MDCK-MDR1 cells (P-gp),2 10^−6 cm/s
same,Human liver microsomal stability: Half-life,[4]; human liver microsomes,10 min
same,Human liver microsomal stability: Intrinsic clearance,[4]; human liver microsomes,142 µL/min/mg
same,Body weight increase,"MC38 cells; 100 mg/Kg, BID, po",1.0%
same,Non-treatment related death,"MC38 cells; 100 mg/Kg, BID, po",3/16
same,Tumour growth inhibition,"MC38 cells; 100 mg/Kg, BID, po",78%
same,% AUCextrap,"[5]; mice, 30 mg/kg po, Free",11.24%
same,AUCinf,"[5]; mice, 30 mg/kg po, Free",58.79 nM·h
same,AUClast,"[5]; mice, 30 mg/kg po, Free",52.07 nM·h
same,MRTlast,"[5]; mice, 30 mg/kg po, Free",165 min
same,Rsq,"[5]; mice, 30 mg/kg po, Free",0.99
same,Tmax,"[5]; mice, 30 mg/kg po, Free",120 min
same,t1/2,"[5]; mice, 30 mg/kg po, Free",85.2 min
same,Cmax,[5]; [10],21.34 ng/mL
same,% AUCextrap,"[5]; mice, 30 mg/kg po, Total",11.24%
same,AUCinf,"[5]; mice, 30 mg/kg po, Total","1,306.48 nM*h"
same,AUClast,"[5]; mice, 30 mg/kg po, Total","1,157.10 nM*h"
same,MRTlast,"[5]; mice, 30 mg/kg po, Total",165 min
same,Rsq,"[5]; mice, 30 mg/kg po, Total",0.99
same,Tmax,"[5]; mice, 30 mg/kg po, Total",120 min
same,t1/2,"[5]; mice, 30 mg/kg po, Total",85.2 min
same,Cmax,[5]; [11],474.16 ng/mL
Cc1nc(Nc2ncc(C(=O)Nc3c(C)csc3Cl)s2)cc(N2CCN(C)CC2)n1 [Compound D9],IC50,SIK3; ATP 1.0 μM,~60 nM
same,Inhibition of NFKB activity (PANC-1),NFKB activity (PANC-1),+
same,Inhibition of HDAC4 phosphorylation,HDAC4 phosphorylation,+
same,Free plasma concentration after 6 h,"[6]; 30 mg/kg po, 6 h, free",8 nM
"Cc1nc(Nc2ncc(C(=O)Nc3c(C)cccc3Cl)s2)cc(N2CCN(CCO)CC2)n1 [Compound A8, N-(2-chloro-6-methylphenyl)-2-[[6-[4-(2-hydroxyethyl)-1-piperazinyl]-2-methyl-4-pyrimidinyl]amino]-5-thiazolecarboxamide]",Inhibition of NFKB activity (PANC-1),NFKB activity (PANC-1),+
same,Inhibition of NFKB activity (MC38),NFKB activity (MC38),+
same,Inhibition of HDAC4 phosphorylation,HDAC4 phosphorylation,++
same,Cmax,"[6]; mouse, plasma, 30 mg/kg po, 2 h",550 ng/mL
